According to ChEMBL document CHEMBL5523734, “Backbone-Determined Antiarrhythmic Structure-Activity Relationships for a Mirror Image, Oligomeric Depsipeptide Natural Product” (J Med Chem, 2024):
Activity calls are given as the source filed them. The calls are words filed in the database; no cut-off is given here. Numbered stars: 1 amine (or outer) side, 2 acyl side, 3 side chain; on linkers, the order of the positions; unused ones are H or OH. Square brackets hold non-standard residues; d marks the D form. Peptide text beside a SMILES is read from it. X1 = CCCCC[C@H](O[*:1])C(=O)[*:2]; NMeAhp(2) = CCCCC[C@H](NC)C(=O)O; Ahp(2) = CCCCC[C@H](N)C(=O)O; dNMeA = CN[C@H](C)C(=O)O

Target: Ryanodine receptor 2 (Mus musculus) (UniProt E9Q401)
Sequence (E9Q401 whole entry): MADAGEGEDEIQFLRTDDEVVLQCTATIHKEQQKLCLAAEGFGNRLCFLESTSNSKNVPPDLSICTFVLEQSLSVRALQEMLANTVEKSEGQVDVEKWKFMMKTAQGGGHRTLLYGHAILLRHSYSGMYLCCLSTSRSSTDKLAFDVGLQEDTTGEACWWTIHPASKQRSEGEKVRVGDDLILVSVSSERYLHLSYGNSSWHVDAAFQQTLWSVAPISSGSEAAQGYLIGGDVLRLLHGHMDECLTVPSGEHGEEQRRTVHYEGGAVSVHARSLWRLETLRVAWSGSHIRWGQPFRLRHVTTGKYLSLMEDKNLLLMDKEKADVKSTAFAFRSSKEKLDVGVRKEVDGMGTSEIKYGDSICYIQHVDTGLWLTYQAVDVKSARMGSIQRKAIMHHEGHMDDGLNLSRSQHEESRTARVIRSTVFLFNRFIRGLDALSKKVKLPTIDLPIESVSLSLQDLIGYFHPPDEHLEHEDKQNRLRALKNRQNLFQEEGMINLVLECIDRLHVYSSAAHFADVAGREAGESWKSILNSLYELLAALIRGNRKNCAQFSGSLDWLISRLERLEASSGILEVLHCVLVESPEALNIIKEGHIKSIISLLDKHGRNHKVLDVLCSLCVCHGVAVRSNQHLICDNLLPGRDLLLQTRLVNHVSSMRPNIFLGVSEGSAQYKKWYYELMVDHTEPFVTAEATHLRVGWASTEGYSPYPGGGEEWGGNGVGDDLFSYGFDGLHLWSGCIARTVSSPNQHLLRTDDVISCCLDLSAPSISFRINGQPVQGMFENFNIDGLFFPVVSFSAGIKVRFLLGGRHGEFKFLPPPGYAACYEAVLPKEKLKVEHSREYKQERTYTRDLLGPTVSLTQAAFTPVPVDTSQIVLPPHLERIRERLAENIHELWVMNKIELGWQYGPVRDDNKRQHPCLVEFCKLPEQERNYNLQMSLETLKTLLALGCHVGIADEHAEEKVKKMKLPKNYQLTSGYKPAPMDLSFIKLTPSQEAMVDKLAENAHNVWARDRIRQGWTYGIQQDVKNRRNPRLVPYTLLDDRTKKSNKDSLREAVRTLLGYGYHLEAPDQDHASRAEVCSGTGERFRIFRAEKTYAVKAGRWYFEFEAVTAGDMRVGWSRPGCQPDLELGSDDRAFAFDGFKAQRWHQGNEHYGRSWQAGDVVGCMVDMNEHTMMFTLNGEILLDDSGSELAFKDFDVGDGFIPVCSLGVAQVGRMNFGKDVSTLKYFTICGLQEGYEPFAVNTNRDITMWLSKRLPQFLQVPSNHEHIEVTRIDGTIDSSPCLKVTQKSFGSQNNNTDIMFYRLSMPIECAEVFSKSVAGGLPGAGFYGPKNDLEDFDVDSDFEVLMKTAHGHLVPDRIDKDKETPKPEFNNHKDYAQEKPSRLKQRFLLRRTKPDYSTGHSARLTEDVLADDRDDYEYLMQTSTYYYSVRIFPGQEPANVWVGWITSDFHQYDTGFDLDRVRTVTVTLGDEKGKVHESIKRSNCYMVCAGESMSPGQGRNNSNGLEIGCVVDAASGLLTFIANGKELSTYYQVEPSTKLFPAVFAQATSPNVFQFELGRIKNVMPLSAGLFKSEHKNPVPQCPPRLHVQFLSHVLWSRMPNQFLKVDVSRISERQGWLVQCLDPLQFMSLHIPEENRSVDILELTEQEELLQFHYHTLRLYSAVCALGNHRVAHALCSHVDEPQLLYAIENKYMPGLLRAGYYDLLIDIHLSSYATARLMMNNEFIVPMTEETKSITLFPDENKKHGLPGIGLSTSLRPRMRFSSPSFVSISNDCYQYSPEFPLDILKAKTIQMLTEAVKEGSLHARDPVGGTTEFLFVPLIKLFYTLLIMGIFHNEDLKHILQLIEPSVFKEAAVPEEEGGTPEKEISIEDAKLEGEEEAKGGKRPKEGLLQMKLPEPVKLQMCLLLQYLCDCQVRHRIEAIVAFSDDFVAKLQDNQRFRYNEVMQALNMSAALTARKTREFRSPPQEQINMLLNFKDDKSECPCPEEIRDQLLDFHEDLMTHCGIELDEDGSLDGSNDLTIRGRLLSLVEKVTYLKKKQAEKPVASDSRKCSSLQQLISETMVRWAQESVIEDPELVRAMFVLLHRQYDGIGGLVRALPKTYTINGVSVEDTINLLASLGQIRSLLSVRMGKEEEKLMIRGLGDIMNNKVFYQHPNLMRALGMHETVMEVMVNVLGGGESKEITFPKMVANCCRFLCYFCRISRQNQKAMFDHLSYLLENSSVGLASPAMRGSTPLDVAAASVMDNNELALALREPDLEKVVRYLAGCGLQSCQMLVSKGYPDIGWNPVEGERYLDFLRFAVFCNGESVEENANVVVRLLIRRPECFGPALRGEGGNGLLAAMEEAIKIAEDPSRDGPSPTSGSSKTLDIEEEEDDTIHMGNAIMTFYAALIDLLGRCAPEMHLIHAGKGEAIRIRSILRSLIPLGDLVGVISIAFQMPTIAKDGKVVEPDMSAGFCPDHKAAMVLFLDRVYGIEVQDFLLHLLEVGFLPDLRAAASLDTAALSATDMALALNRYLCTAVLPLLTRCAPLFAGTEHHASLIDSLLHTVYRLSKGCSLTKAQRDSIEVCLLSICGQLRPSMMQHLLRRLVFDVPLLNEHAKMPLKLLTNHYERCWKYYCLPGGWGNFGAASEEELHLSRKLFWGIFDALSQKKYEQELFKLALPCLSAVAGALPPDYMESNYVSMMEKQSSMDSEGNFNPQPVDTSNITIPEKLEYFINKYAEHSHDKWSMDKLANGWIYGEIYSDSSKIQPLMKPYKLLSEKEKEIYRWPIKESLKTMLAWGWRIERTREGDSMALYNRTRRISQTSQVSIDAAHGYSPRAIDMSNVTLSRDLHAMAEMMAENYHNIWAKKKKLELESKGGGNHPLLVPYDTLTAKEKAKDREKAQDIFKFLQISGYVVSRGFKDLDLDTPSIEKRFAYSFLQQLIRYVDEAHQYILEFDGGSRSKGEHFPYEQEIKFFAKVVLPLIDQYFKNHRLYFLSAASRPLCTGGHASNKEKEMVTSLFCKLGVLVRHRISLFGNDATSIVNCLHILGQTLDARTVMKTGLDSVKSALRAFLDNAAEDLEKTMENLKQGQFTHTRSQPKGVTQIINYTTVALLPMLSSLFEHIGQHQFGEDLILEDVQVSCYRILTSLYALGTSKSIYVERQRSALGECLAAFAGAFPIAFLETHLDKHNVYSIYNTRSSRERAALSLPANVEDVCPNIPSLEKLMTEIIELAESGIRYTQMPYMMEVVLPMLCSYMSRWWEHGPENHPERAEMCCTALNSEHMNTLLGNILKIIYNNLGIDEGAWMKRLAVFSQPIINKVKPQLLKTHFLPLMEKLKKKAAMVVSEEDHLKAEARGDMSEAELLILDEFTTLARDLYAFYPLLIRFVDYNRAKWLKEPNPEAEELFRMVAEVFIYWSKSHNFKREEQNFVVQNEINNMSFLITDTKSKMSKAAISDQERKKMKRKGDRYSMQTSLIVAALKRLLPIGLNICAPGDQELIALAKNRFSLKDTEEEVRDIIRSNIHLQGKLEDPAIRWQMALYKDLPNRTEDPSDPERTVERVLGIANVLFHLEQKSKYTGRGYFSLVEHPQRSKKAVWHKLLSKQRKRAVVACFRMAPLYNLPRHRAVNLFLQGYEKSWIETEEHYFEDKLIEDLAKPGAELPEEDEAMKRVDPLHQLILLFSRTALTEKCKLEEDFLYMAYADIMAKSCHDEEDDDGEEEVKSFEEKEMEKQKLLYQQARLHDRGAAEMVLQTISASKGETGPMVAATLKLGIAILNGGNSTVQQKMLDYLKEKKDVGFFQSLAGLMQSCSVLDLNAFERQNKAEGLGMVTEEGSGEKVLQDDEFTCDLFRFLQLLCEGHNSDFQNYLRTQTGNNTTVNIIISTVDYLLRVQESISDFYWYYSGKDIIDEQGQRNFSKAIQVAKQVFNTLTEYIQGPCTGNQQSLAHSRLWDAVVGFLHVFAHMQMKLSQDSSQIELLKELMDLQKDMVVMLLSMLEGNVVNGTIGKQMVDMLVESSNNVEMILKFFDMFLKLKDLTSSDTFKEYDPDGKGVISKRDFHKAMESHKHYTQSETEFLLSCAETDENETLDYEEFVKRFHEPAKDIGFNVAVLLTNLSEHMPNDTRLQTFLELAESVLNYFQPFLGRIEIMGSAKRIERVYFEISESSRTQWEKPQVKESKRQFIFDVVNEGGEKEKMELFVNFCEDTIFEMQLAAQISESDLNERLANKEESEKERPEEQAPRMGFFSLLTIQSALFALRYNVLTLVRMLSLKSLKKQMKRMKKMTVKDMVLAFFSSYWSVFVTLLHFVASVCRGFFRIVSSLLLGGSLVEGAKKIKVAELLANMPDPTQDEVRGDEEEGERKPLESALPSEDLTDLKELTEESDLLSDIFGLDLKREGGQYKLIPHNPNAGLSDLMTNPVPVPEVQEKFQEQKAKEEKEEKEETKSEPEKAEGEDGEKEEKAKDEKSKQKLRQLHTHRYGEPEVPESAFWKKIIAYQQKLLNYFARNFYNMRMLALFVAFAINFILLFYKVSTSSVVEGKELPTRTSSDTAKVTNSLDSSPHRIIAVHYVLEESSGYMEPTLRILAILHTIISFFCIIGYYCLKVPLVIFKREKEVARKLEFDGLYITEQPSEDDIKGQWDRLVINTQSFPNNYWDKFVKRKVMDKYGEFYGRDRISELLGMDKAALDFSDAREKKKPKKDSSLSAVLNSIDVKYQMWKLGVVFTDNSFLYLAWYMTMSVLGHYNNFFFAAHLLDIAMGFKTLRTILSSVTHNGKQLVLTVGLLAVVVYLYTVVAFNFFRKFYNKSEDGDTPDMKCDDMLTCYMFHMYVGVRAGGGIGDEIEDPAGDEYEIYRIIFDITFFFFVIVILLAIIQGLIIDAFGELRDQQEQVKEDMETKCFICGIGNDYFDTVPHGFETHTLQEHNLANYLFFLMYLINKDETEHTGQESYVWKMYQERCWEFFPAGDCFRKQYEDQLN
Test: Inhibition of RyR2-mediated calcium spark frequency in saponin-permeabilized left ventricular myocytes of C57BL/6J mouse at 25 uM incubated for 15 min by Fluo-4 dye based analysis
Format: cell-based
Conditions: Ventricular myocyte
In the case of `CCCCC[C@@H]1OC(=O)[C@@H](C)N(C)C(=O)[C@H](CCCCC)OC(=O)[C@@H](C)N(C)C(=O)[C@H](CCCCC)N(C)C(=O)[C@@H](C)N(C)C(=O)[C@H](CCCCC)OC(=O)[C@@H](C)N(C)C1=O`, the inhibition is reported as “Active”. With `CCCCC[C@@H]1OC(=O)[C@@H](C)N(C)C(=O)[C@H](CCCCC)N(C)C(=O)[C@@H](C)N(C)C(=O)[C@H](CCCCC)N(C)C(=O)[C@@H](C)N(C)C(=O)[C@H](CCCCC)N(C)C(=O)[C@@H](C)N(C)C1=O` the inhibition was “inactive”. With `CCCCC[C@@H]1OC(=O)[C@@H](C)N(C)C(=O)[C@H](CCCCC)N(C)C(=O)[C@@H](C)N(C)C(=O)[C@H](CCCCC)N(C)C(=O)[C@@H](C)N(C)C(=O)[C@H](CCCCC)OC(=O)[C@@H](C)N(C)C1=O` the inhibition was “inactive”. In the case of `CCCCC[C@@H]1OC(=O)[C@@H](C)N(C)C(=O)[C@H](CCCCC)N(C)C(=O)[C@@H](C)N(C)C(=O)[C@H](CCCCC)OC(=O)[C@@H](C)N(C)C(=O)[C@H](CCCCC)N(C)C(=O)[C@@H](C)N(C)C1=O`, the inhibition is reported as “inactive”. In the case of `CCCCC[C@@H]1OC(=O)[C@@H](C)N(C)C(=O)[C@H](CCCCC)OC(=O)[C@@H](C)N(C)C(=O)[C@H](CCCCC)OC(=O)[C@@H](C)N(C)C(=O)[C@H](CCCCC)OC(=O)[C@@H](C)N(C)C1=O`, the inhibition is reported as “inactive”. For `CCCCC[C@@H]1OC(=O)[C@@H](C)N(C)C(=O)[C@H](CCCCC)OC(=O)[C@@H](C)N(C)C(=O)[C@H](CCCCC)OC(=O)[C@@H](C)N(C)C(=O)[C@H](CCCCC)OC(=O)[C@@H](C)NC1=O`, the inhibition was “inactive”. For `CCCCC[C@@H]1OC(=O)[C@@H](C)N(C)C(=O)[C@H](CCCCC)OC(=O)[C@@H](C)N(C)C(=O)[C@H](CCCCC)OC(=O)[C@@H](C)NC(=O)[C@H](CCCCC)OC(=O)[C@@H](C)NC1=O`, the inhibition was “inactive”. With `CCCCC[C@@H]1OC(=O)[C@@H](C)N(C)C(=O)[C@H](CCCCC)OC(=O)[C@@H](C)NC(=O)[C@H](CCCCC)OC(=O)[C@@H](C)N(C)C(=O)[C@H](CCCCC)OC(=O)[C@@H](C)NC1=O` the inhibition was “inactive”. For `CCCCC[C@@H]1OC(=O)[C@@H](C)N(C)C(=O)[C@H](CCCCC)OC(=O)[C@@H](C)NC(=O)[C@H](CCCCC)OC(=O)[C@@H](C)NC(=O)[C@H](CCCCC)OC(=O)[C@@H](C)NC1=O`, the inhibition was “inactive”. In the case of `CCCCC[C@@H]1OC(=O)[C@@H](C)NC(=O)[C@H](CCCCC)OC(=O)[C@@H](C)NC(=O)[C@H](CCCCC)OC(=O)[C@@H](C)NC(=O)[C@H](CCCCC)OC(=O)[C@@H](C)NC1=O`, the inhibition is reported as “inactive”. With `CCCCC[C@@H]1NC(=O)[C@@H](C)N(C)C(=O)[C@H](CCCCC)NC(=O)[C@@H](C)N(C)C(=O)[C@H](CCCCC)NC(=O)[C@@H](C)N(C)C(=O)[C@H](CCCCC)NC(=O)[C@@H](C)N(C)C1=O` (cyclo([Ahp(2)][dNMeA][Ahp(2)][dNMeA][Ahp(2)][dNMeA][Ahp(2)][dNMeA])) the inhibition was “inactive”. With `CCCCC[C@@H]1NC(=O)[C@@H](C)N(C)C(=O)[C@H](CCCCC)NC(=O)[C@@H](C)N(C)C(=O)[C@H](CCCCC)N(C)C(=O)[C@@H](C)N(C)C(=O)[C@H](CCCCC)NC(=O)[C@@H](C)N(C)C1=O` (cyclo([Ahp(2)][dNMeA][Ahp(2)][dNMeA][Ahp(2)][dNMeA][NMeAhp(2)][dNMeA])) the inhibition was “inactive”. With `CCCCC[C@@H]1NC(=O)[C@@H](C)N(C)C(=O)[C@H](CCCCC)NC(=O)[C@@H](C)N(C)C(=O)[C@H](CCCCC)OC(=O)[C@@H](C)N(C)C(=O)[C@H](CCCCC)NC(=O)[C@@H](C)N(C)C1=O` (cyclo([Ahp(2)][dNMeA][Ahp(2)][dNMeA][Ahp(2)][dNMeA][X1][dNMeA])) the inhibition was “inactive”. For `CCCCC[C@@H]1NC(=O)[C@@H](C)N(C)C(=O)[C@H](CCCCC)N(C)C(=O)[C@@H](C)N(C)C(=O)[C@H](CCCCC)N(C)C(=O)[C@@H](C)N(C)C(=O)[C@H](CCCCC)NC(=O)[C@@H](C)N(C)C1=O` (cyclo([Ahp(2)][dNMeA][Ahp(2)][dNMeA][NMeAhp(2)][dNMeA][NMeAhp(2)][dNMeA])), the inhibition was “inactive”. With `CCCCC[C@@H]1NC(=O)[C@@H](C)N(C)C(=O)[C@H](CCCCC)OC(=O)[C@@H](C)N(C)C(=O)[C@H](CCCCC)OC(=O)[C@@H](C)N(C)C(=O)[C@H](CCCCC)NC(=O)[C@@H](C)N(C)C1=O` (cyclo([Ahp(2)][dNMeA][Ahp(2)][dNMeA][X1][dNMeA][X1][dNMeA])) the inhibition was “inactive”. In the case of `CCCCC[C@@H]1NC(=O)[C@@H](C)N(C)C(=O)[C@H](CCCCC)N(C)C(=O)[C@@H](C)N(C)C(=O)[C@H](CCCCC)NC(=O)[C@@H](C)N(C)C(=O)[C@H](CCCCC)N(C)C(=O)[C@@H](C)N(C)C1=O` (cyclo([Ahp(2)][dNMeA][NMeAhp(2)][dNMeA][Ahp(2)][dNMeA][NMeAhp(2)][dNMeA])), the inhibition is reported as “inactive”. With `CCCCC[C@@H]1NC(=O)[C@@H](C)N(C)C(=O)[C@H](CCCCC)N(C)C(=O)[C@@H](C)N(C)C(=O)[C@H](CCCCC)N(C)C(=O)[C@@H](C)N(C)C(=O)[C@H](CCCCC)N(C)C(=O)[C@@H](C)N(C)C1=O` (cyclo([Ahp(2)][dNMeA][NMeAhp(2)][dNMeA][NMeAhp(2)][dNMeA][NMeAhp(2)][dNMeA])) the inhibition was “inactive”. For `CCCCC[C@@H]1NC(=O)[C@@H](C)N(C)C(=O)[C@H](CCCCC)OC(=O)[C@@H](C)N(C)C(=O)[C@H](CCCCC)NC(=O)[C@@H](C)N(C)C(=O)[C@H](CCCCC)OC(=O)[C@@H](C)N(C)C1=O` (cyclo([Ahp(2)][dNMeA][X1][dNMeA][Ahp(2)][dNMeA][X1][dNMeA])), the inhibition was “inactive”. For `CCCCC[C@@H]1NC(=O)[C@@H](C)N(C)C(=O)[C@H](CCCCC)OC(=O)[C@@H](C)N(C)C(=O)[C@H](CCCCC)OC(=O)[C@@H](C)N(C)C(=O)[C@H](CCCCC)OC(=O)[C@@H](C)N(C)C1=O` (cyclo([Ahp(2)][dNMeA][X1][dNMeA][X1][dNMeA][X1][dNMeA])), the inhibition was “Active”. In the case of `CCCCC[C@H]1C(=O)N[C@H](C)C(=O)N(C)[C@@H](CCCCC)C(=O)N[C@H](C)C(=O)N(C)[C@@H](CCCCC)C(=O)N[C@H](C)C(=O)N(C)[C@@H](CCCCC)C(=O)N[C@H](C)C(=O)N1C` (cyclo([NMeAhp(2)][dA][NMeAhp(2)][dA][NMeAhp(2)][dA][NMeAhp(2)][dA])), the inhibition is reported as “inactive”. For `CCCCC[C@H]1C(=O)N[C@H](C)C(=O)N(C)[C@@H](CCCCC)C(=O)N[C@H](C)C(=O)N(C)[C@@H](CCCCC)C(=O)N[C@H](C)C(=O)N(C)[C@@H](CCCCC)C(=O)N(C)[C@H](C)C(=O)N1C` (cyclo([NMeAhp(2)][dA][NMeAhp(2)][dA][NMeAhp(2)][dA][NMeAhp(2)][dNMeA])), the inhibition was “inactive”. With `CCCCC[C@H]1C(=O)N[C@H](C)C(=O)N(C)[C@@H](CCCCC)C(=O)N[C@H](C)C(=O)N(C)[C@@H](CCCCC)C(=O)N(C)[C@H](C)C(=O)N(C)[C@@H](CCCCC)C(=O)N(C)[C@H](C)C(=O)N1C` (cyclo([NMeAhp(2)][dA][NMeAhp(2)][dA][NMeAhp(2)][dNMeA][NMeAhp(2)][dNMeA])) the inhibition was “inactive”. For `CCCCC[C@H]1C(=O)N[C@H](C)C(=O)N(C)[C@@H](CCCCC)C(=O)N(C)[C@H](C)C(=O)N(C)[C@@H](CCCCC)C(=O)N[C@H](C)C(=O)N(C)[C@@H](CCCCC)C(=O)N(C)[C@H](C)C(=O)N1C` (cyclo([NMeAhp(2)][dA][NMeAhp(2)][dNMeA][NMeAhp(2)][dA][NMeAhp(2)][dNMeA])), the inhibition was “inactive”. In the case of `CCCCC[C@H]1C(=O)N[C@H](C)C(=O)N(C)[C@@H](CCCCC)C(=O)N(C)[C@H](C)C(=O)N(C)[C@@H](CCCCC)C(=O)N(C)[C@H](C)C(=O)N(C)[C@@H](CCCCC)C(=O)N(C)[C@H](C)C(=O)N1C` (cyclo([NMeAhp(2)][dA][NMeAhp(2)][dNMeA][NMeAhp(2)][dNMeA][NMeAhp(2)][dNMeA])), the inhibition is reported as “inactive”. With `CCCCC[C@H]1C(=O)N(C)[C@H](C)C(=O)N(C)[C@@H](CCCCC)C(=O)N(C)[C@H](C)C(=O)N(C)[C@@H](CCCCC)C(=O)N(C)[C@H](C)C(=O)N(C)[C@@H](CCCCC)C(=O)N(C)[C@H](C)C(=O)N1C` (cyclo([NMeAhp(2)][dNMeA][NMeAhp(2)][dNMeA][NMeAhp(2)][dNMeA][NMeAhp(2)][dNMeA])) the inhibition was “inactive”.

Test system: not listed separately
Test: Passive permeability of compound by PAMPA
Format: ADME
Conditions: not given
For `CCCCC[C@@H]1OC(=O)[C@@H](C)N(C)C(=O)[C@H](CCCCC)OC(=O)[C@@H](C)N(C)C(=O)[C@H](CCCCC)N(C)C(=O)[C@@H](C)N(C)C(=O)[C@H](CCCCC)OC(=O)[C@@H](C)N(C)C1=O`, the permeability was “Permeable”. With `CCCCC[C@@H]1NC(=O)[C@@H](C)N(C)C(=O)[C@H](CCCCC)OC(=O)[C@@H](C)N(C)C(=O)[C@H](CCCCC)OC(=O)[C@@H](C)N(C)C(=O)[C@H](CCCCC)OC(=O)[C@@H](C)N(C)C1=O` (cyclo([Ahp(2)][dNMeA][X1][dNMeA][X1][dNMeA][X1][dNMeA])) the permeability was “Permeable”.
